This note sets out measurements from patent US20260125382A1, “COMPOUNDS FOR INHIBITING OR DEGRADING CDK2 AND/OR CDK9 AND MEDICINAL USE THEREOF” (KOREA RESEARCH INSTITUTE OF CHEMICAL TECHNOLOGY, priority 2022, published 2026).

Experiment [1] addresses T1, CDK2 (Homo sapiens, UniProt P24941).
T1 construct: endogenous in cells; host or cells: MDA-MB-231
The experiment in a line: CDK protein degradation activity (Western blotting), CDK2. The format is cell-based. As to conditions: MDA-MB-231 cells, 16 hours, Western blot. A digest of the protocol:
(§1)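 CDK2 and CDK9 protein levels measured by Western blot with densitometry, using tubulin as loading reference. Cells were MDA-MB-231, exposed for 16 h to 100 nM, 1 μM or 10 μM compound or to DMSO.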

Experiment [2] addresses T2, CDK9 (Homo sapiens, UniProt P50750).
T2 construct: endogenous in cells; host or cells: MDA-MB-231
The experiment in a line: CDK protein degradation activity (Western blotting), CDK9. The format is cell-based. As to conditions: MDA-MB-231 cells, 16 hours, Western blot. Put shortly: as §1

Each structure is given as a SMILES string.

T2 sequence (P50750 whole entry): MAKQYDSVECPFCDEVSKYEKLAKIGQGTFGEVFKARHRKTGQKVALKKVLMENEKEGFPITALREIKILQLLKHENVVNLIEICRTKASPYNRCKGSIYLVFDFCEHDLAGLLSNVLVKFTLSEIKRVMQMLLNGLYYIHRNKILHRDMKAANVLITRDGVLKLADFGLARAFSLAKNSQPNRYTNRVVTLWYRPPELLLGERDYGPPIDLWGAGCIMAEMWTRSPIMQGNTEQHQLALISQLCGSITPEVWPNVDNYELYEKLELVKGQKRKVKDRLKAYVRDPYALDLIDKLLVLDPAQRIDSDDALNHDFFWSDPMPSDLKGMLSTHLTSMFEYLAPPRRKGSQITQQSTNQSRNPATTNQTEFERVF

Take `O=C1CC[C@@H](c2cccc(OCC(=O)N3CCC4(CC3)CC(N3CCN(c5ccc(Nc6ncnc7c6ncn7C6CC(NC(=O)Cc7ccccc7)C6)cc5)CC3)C4)c2)C(=O)N1` (stereo partly drawn) [Compound 226, N-((1s,3s)-3-(6-((4-(4-(7-(2-(3-(2,6-dioxopiperidin-3-yl)phenoxy)acetyl)-7-azaspiro[3.5]nonan-2-yl)piperazin-1-yl)phenyl)amino)-9H-purin-9-yl)cyclobutyl)-2-phenylacetamide]: in experiment [1], the “Enzyme degradation CDK2 (% remaining) @ 0.1 μM” value is 40%, the “Enzyme degradation CDK2 (% remaining) @ 1 μM” value stood at 30% and the “Enzyme degradation CDK2 (% remaining) @ 10 μM” value stood at 40%. Also, in experiment [2], the “Enzyme degradation CDK9 (% remaining) @ 0.1 μM” value is on record as 0/0/0%, the “Enzyme degradation CDK9 (% remaining) @ 1 μM” value was 0/0/0% and the “Enzyme degradation CDK9 (% remaining) @ 10 μM” value is given as 0/0/0%.
On to `O=C1CC[C@@H](c2cccc(OCC(=O)N3CCC(CC(=O)N4CCN(c5ccc(Nc6ncnc7c6ncn7[C@H]6C[C@@H](NC(=O)Cc7ccccc7)C6)cc5)CC4)CC3)c2)C(=O)N1` [Compound 227, N-((1s,3s)-3-(6-((4-(4-(2-(1-(2-(3-(2,6-dioxopiperidin-3-yl)phenoxy)acetyl)piperidin-4-yl)acetyl)piperazin-1-yl)phenyl)amino)-9H-purin-9-yl)cyclobutyl)-2-phenylacetamide], for which, in experiment [1], the “Enzyme degradation CDK2 (% remaining) @ 0.1 μM” value is 50%, the “Enzyme degradation CDK2 (% remaining) @ 1 μM” value is given as 20% and the “Enzyme degradation CDK2 (% remaining) @ 10 μM” value is 70%. Moreover, in experiment [2], the “Enzyme degradation CDK9 (% remaining) @ 0.1 μM” value is reported as 60%, the “Enzyme degradation CDK9 (% remaining) @ 1 μM” value was determined as 70% and the “Enzyme degradation CDK9 (% remaining) @ 10 μM” value worked out at 10%.
Regarding `Cc1cccc(C(=O)NC2CC(n3cnc4c(NCCCN5CCN(CC6CCN(C(=O)COc7ccc([C@@H]8CCC(=O)NC8=O)cc7)CC6)CC5)ncnc43)C2)n1` (stereo partly drawn) [Compound 229, N-((1s,3s)-3-(6-((3-(4-((1-(2-(4-(2,6-dioxopiperidin-3-yl)phenoxy)acetyl)piperidin-4-yl)methyl)piperazin-1-yl)propyl)amino)-9H-purin-9-yl)cyclobutyl)-6-methylpicolinamide], in experiment [1], the “Enzyme degradation CDK2 (% remaining) @ 0.1 μM” value came out at 70%, the “Enzyme degradation CDK2 (% remaining) @ 1 μM” value is listed as 90% and the “Enzyme degradation CDK2 (% remaining) @ 10 μM” value came to 100%. In addition, in experiment [2], the “Enzyme degradation CDK9 (% remaining) @ 0.1 μM” value came to 20%, the “Enzyme degradation CDK9 (% remaining) @ 1 μM” value worked out at 10% and the “Enzyme degradation CDK9 (% remaining) @ 10 μM” value is on record as 0%.
In the case of `Cc1cccc(C(=O)N[C@H]2C[C@@H](n3cnc4c(NCCCN5CCN(CC6CCN(C(=O)COc7cccc([C@@H]8CCC(=O)NC8=O)c7)CC6)CC5)ncnc43)C2)n1` [Compound 230, N-((1s,3s)-3-(6-((3-(4-((1-(2-(3-(2,6-dioxopiperidin-3-yl)phenoxy)acetyl)piperidin-4-yl)methyl)piperazin-1-yl)propyl)amino)-9H-purin-9-yl)cyclobutyl)-6-methylpicolinamide], in experiment [1], the “Enzyme degradation CDK2 (% remaining) @ 0.1 μM” value was determined as 50%, the “Enzyme degradation CDK2 (% remaining) @ 1 μM” value is given as 50% and the “Enzyme degradation CDK2 (% remaining) @ 10 μM” value was 80%. In addition, in experiment [2], the “Enzyme degradation CDK9 (% remaining) @ 0.1 μM” value came to 30%, the “Enzyme degradation CDK9 (% remaining) @ 1 μM” value is reported as 10% and the “Enzyme degradation CDK9 (% remaining) @ 10 μM” value was 0%.
For the compound `O=C1CC[C@H](N2C(=O)c3cccc(NCC(=O)N4CCN(CCCN5CCN(c6ccc(Nc7ncnc8c7ncn8[C@H]7C[C@@H](NC(=O)Cc8ccccc8)C7)cc6)CC5)CC4)c3C2=O)C(=O)N1` [Compound 231, N-((1s,3s)-3-(6-((4-(4-(3-(4-((2-(2,6-dioxopiperidin-3-yl)-1,3-dioxoisoindolin-4-yl)glycyl)piperazin-1-yl)propyl)piperazin-1-yl)phenyl)amino)-9H-purin-9-yl)cyclobutyl)-2-phenylacetamide], in experiment [1], the “Enzyme degradation CDK2 (% remaining) @ 0.1 μM” value was determined as 50%, the “Enzyme degradation CDK2 (% remaining) @ 1 μM” value is recorded as 60% and the “Enzyme degradation CDK2 (% remaining) @ 10 μM” value came to 40%. Besides, in experiment [2], the “Enzyme degradation CDK9 (% remaining) @ 0.1 μM” value is on record as 20%, the “Enzyme degradation CDK9 (% remaining) @ 1 μM” value came to 0% and the “Enzyme degradation CDK9 (% remaining) @ 10 μM” value is reported as 0%.
For `O=C1CCC(N2C(=O)c3cccc(OCC(=O)N4CCN(CCCN5CCN(c6ccc(Nc7ncnc8c7ncn8[C@H]7C[C@@H](NC(=O)Cc8ccccc8)C7)cc6)CC5)CC4)c3C2=O)C(=O)N1` (stereo partly drawn) [Compound 232, N-((1s,3s)-3-(6-((4-(4-(3-(4-(2-((2-(2,6-dioxopiperidin-3-yl)-1,3-dioxoisoindolin-4-yl)oxy)acetyl)piperazin-1-yl)propyl)piperazin-1-yl)phenyl)amino)-9H-purin-9-yl)cyclobutyl)-2-phenylacetamide], in experiment [1], the “Enzyme degradation CDK2 (% remaining) @ 0.1 μM” value came to 60%, the “Enzyme degradation CDK2 (% remaining) @ 1 μM” value was determined as 20% and the “Enzyme degradation CDK2 (% remaining) @ 10 μM” value is given as 20%. For the same compound, in experiment [2], the “Enzyme degradation CDK9 (% remaining) @ 0.1 μM” value stood at 90%, the “Enzyme degradation CDK9 (% remaining) @ 1 μM” value stood at 10% and the “Enzyme degradation CDK9 (% remaining) @ 10 μM” value came out at 0%.
`O=C1CC[C@H](N2C(=O)c3ccc(NCC(=O)N4CCN(CCCN5CCN(c6ccc(Nc7ncnc8c7ncn8C7CC(NC(=O)Cc8ccccc8)C7)cc6)CC5)CC4)cc3C2=O)C(=O)N1` (stereo partly drawn) [Compound 233, N-((1s,3s)-3-(6-((4-(4-(3-(4-((2-(2,6-dioxopiperidin-3-yl)-1,3-dioxoisoindolin-5-yl)glycyl)piperazin-1-yl)propyl)piperazin-1-yl)phenyl)amino)-9H-purin-9-yl)cyclobutyl)-2-phenylacetamide]: in experiment [1], the “Enzyme degradation CDK2 (% remaining) @ 0.1 μM” value is reported as 80%, the “Enzyme degradation CDK2 (% remaining) @ 1 μM” value came out at 80% and the “Enzyme degradation CDK2 (% remaining) @ 10 μM” value is listed as 70%. Moreover, in experiment [2], the “Enzyme degradation CDK9 (% remaining) @ 0.1 μM” value amounted to 40%, the “Enzyme degradation CDK9 (% remaining) @ 1 μM” value is 0% and the “Enzyme degradation CDK9 (% remaining) @ 10 μM” value was determined as 0%.
With `O=C1CC[C@H](N2C(=O)c3ccc(OCC(=O)N4CCN(CCCN5CCN(c6ccc(Nc7ncnc8c7ncn8[C@H]7C[C@@H](NC(=O)Cc8ccccc8)C7)cc6)CC5)CC4)cc3C2=O)C(=O)N1` [Compound 234, N-((1s,3s)-3-(6-((4-(4-(3-(4-(2-((2-(2,6-dioxopiperidin-3-yl)-1,3-dioxoisoindolin-5-yl)oxy)acetyl)piperazin-1-yl)propyl)piperazin-1-yl)phenyl)amino)-9H-purin-9-yl)cyclobutyl)-2-phenylacetamide], in experiment [1], the “Enzyme degradation CDK2 (% remaining) @ 0.1 μM” value was 100%, the “Enzyme degradation CDK2 (% remaining) @ 1 μM” value was found to be 80% and the “Enzyme degradation CDK2 (% remaining) @ 10 μM” value is 70%. In experiment [2], the “Enzyme degradation CDK9 (% remaining) @ 0.1 μM” value was determined as 60%, the “Enzyme degradation CDK9 (% remaining) @ 1 μM” value was determined as 40% and the “Enzyme degradation CDK9 (% remaining) @ 10 μM” value came to 0%.
In the case of `O=C1CC[C@@H](c2ccc(OCC(=O)N3CCN(CCCN4CCN(c5ccc(Nc6ncnc7c6ncn7C6CC(NC(=O)Cc7ccccc7)C6)cc5)CC4)CC3)cc2)C(=O)N1` (stereo partly drawn) [Compound 236, N-((1s,3s)-3-(6-((4-(4-(3-(4-(2-(4-(2,6-dioxopiperidin-3-yl)phenoxy)acetyl)piperazin-1-yl)propyl)piperazin-1-yl)phenyl)amino)-9H-purin-9-yl)cyclobutyl)-2-phenylacetamide], in experiment [1], the “Enzyme degradation CDK2 (% remaining) @ 0.1 μM” value is recorded as 50/50/50%, the “Enzyme degradation CDK2 (% remaining) @ 1 μM” value is 50/50/50% and the “Enzyme degradation CDK2 (% remaining) @ 10 μM” value is 50/50/50%. In addition, in experiment [2], the “Enzyme degradation CDK9 (% remaining) @ 0.1 μM” value stood at 20%, the “Enzyme degradation CDK9 (% remaining) @ 1 μM” value amounted to 0% and the “Enzyme degradation CDK9 (% remaining) @ 10 μM” value is 0%.
Take `O=C1CC[C@@H](c2cccc(OCC(=O)N3CCN(CCCN4CCN(c5ccc(Nc6ncnc7c6ncn7C6CC(NC(=O)Cc7ccccc7)C6)cc5)CC4)CC3)c2)C(=O)N1` (stereo partly drawn) [Compound 237, N-((1s,3s)-3-(6-((4-(4-(3-(4-(2-(3-(2,6-dioxopiperidin-3-yl)phenoxy)acetyl)piperazin-1-yl)propyl)piperazin-1-yl)phenyl)amino)-9H-purin-9-yl)cyclobutyl)-2-phenylacetamide]: in experiment [1], the “Enzyme degradation CDK2 (% remaining) @ 0.1 μM” value is recorded as 10%, the “Enzyme degradation CDK2 (% remaining) @ 1 μM” value was determined as 0% and the “Enzyme degradation CDK2 (% remaining) @ 10 μM” value came to 0%. Besides, in experiment [2], the “Enzyme degradation CDK9 (% remaining) @ 0.1 μM” value came out at 20%, the “Enzyme degradation CDK9 (% remaining) @ 1 μM” value was found to be 0% and the “Enzyme degradation CDK9 (% remaining) @ 10 μM” value stood at 0%.
Turning to `O=C1CC[C@H](N2C(=O)c3cccc(N4CCN(CCCN5CCN(c6ccc(Nc7ncnc8c7ncn8C7CC(NC(=O)Cc8ccccc8)C7)cc6)CC5)CC4)c3C2=O)C(=O)N1` (stereo partly drawn) [Compound 238, N-((1s,3s)-3-(6-((4-(4-(3-(4-(2-(2,6-dioxopiperidin-3-yl)-1,3-dioxoisoindolin-4-yl)piperazin-1-yl)propyl)piperazin-1-yl)phenyl)amino)-9H-purin-9-yl)cyclobutyl)-2-phenylacetamide], in experiment [1], the “Enzyme degradation CDK2 (% remaining) @ 0.1 μM” value is recorded as 100%, the “Enzyme degradation CDK2 (% remaining) @ 1 μM” value amounted to 80% and the “Enzyme degradation CDK2 (% remaining) @ 10 μM” value is given as 50%. Also, in experiment [2], the “Enzyme degradation CDK9 (% remaining) @ 0.1 μM” value came to 70%, the “Enzyme degradation CDK9 (% remaining) @ 1 μM” value stood at 20% and the “Enzyme degradation CDK9 (% remaining) @ 10 μM” value was 0%.
`O=C1CCC(N2C(=O)c3ccc(N4CCN(CCCN5CCN(c6ccc(Nc7ncnc8c7ncn8[C@H]7C[C@@H](NC(=O)Cc8ccccc8)C7)cc6)CC5)CC4)cc3C2=O)C(=O)N1` (stereo partly drawn) [Compound 239, N-((1s,3s)-3-(6-((4-(4-(3-(4-(2-(2,6-dioxopiperidin-3-yl)-1,3-dioxoisoindolin-5-yl)piperazin-1-yl)propyl)piperazin-1-yl)phenyl)amino)-9H-purin-9-yl)cyclobutyl)-2-phenylacetamide]: in experiment [1], the “Enzyme degradation CDK2 (% remaining) @ 0.1 μM” value came out at 100%, the “Enzyme degradation CDK2 (% remaining) @ 1 μM” value amounted to 20% and the “Enzyme degradation CDK2 (% remaining) @ 10 μM” value is 20%. Also, in experiment [2], the “Enzyme degradation CDK9 (% remaining) @ 0.1 μM” value is listed as 70%, the “Enzyme degradation CDK9 (% remaining) @ 1 μM” value was determined as 0% and the “Enzyme degradation CDK9 (% remaining) @ 10 μM” value is reported as 0%.
